Measurements published in PMC9181987, “Disclosing the Potential of Fluorinated Ionic Liquids as Interferon-Alpha 2b Delivery Systems” (Nanomaterials, 2022).

Test: Tensiometry (Du Noüy ring): surface tension breakpoints, surface properties, critical packing parameters
Type: physicochemical
Settings: 25°C
Protocol: The force tensiometer is equipped with a platinum Du Noüy ring to surface tension measurement and a thermostatic vessel connected to a bath circulator (RW-0535G, Lab. Companion, Daejeon, Republic of Korea) in order to keep the temperature of the solution constant. Next, 15 mL of each sample was placed in a glass container and left to equilibrate in the thermostatic vessel. After temperature equilibration, the surface tension was measured. The equipment is a standalone-controlled instrument, and the calibration was conducted with a calibration weight with a known mass before measuring the samples. Each sample was measured five times, and the reported surface tension was the average value with an uncertainty of ±0.22 mN/m. Each solution was then assessed by a KSV’s contact angle goniometer CAM100 (Biolin Scientific, Gothenburg, Sweden). A drop of each solution was placed on a Teflon surface with a Hamilton syringe. This equipment is a PC-controlled instrument, and the tilt was set to 0 degrees at the base of the drop and was recorded for 10 frames with an interval of 1 s. The contact angle was calculated for the left and right sides of the drop and the mean value was the resulting contact angle. At least five different drops of each solution were recorded, and the reported contact angle was the resulting average with an uncertainty of ±5%.
After the evaluation of the CACs, other properties can be taken from the surface tension data. […] The n parameter is deduced from the degree of ionization of aggregates, α, as n = 2 − α, determined from the conductivity profile of the FIL and assumed to be the same for the surface layer in ionic surfactants.
From the Γmax and Avogadro’s number (NA) the minimum area occupied per surfactant molecule at the air/water interface, Amim, can be obtained as set by:(4) Amin=10^18/NAΓmax
In addition, the parameter that explains the efficacy of a surfactant to reduce the surface tension, ΠCAC, was determined, expressing the maximum surface tension diminution resulting from the dissolution of surfactant molecules. This parameter is determined by the surface tension of the solvent ( γ0 ) and the γCAC , as follows:(5) ΠCAC=γ0−γCAC
Them, from ΠCAC, the standard free energy of adsorption, ΔGad0 , was calculated using the following equation [55]:(6) ΔGad0=ΔGagg0−ΠCAC/Γmax
Finally, aiming to disclose information on the self-aggregation process and the shape of the aggregates, the critical packing parameter, P, was also calculated in this work, as follows:(7) P=V0/Aminlc where V0 and lc are the volume occupied by the hydrophobic chains in the aggregate core and the critical chain length, respectively. The structure of the aggregates is defined as spherical when P ≤ 0.33, cylindrical for P ≤ 0.5, lamellar when P ≤ 1, and inverted for P > 1 [38].

[1] = 5 μg/mL IFN-α 2b + 5 mM NaH2PO4 (pH=7.4), 1st breakpoint
[2] = 5 μg/mL IFN-α 2b + 5 mM NaH2PO4 (pH=7.4), 2nd breakpoint
[3] = 5 μg/mL IFN-α 2b + 5 mM NaH2PO4 (pH=7.4), 3rd breakpoint
[4] = 5 μg/mL IFN-α 2b + 5 mM NaH2PO4 (pH=7.4), 4th breakpoint

With `CCn1cc[n+](C)c1.O=S(=O)([O-])C(F)(F)C(F)(F)C(F)(F)C(F)(F)F` [[C2C1Im][C4F9SO3], 1-Ethyl-3-methylimidazolium perfluorobutanesulfonate] the “CAC (wFIL), tensiometer” value [1] was 0.0008, the “CAC, tensiometer” value [1] was 1.963 mmol⸱kg-1 and the “surface tension at CAC, γCAC” value [1] was 51.4 mN m-1. The “CAC (wFIL), tensiometer” value [2] was 0.0025, the “CAC, tensiometer” value [2] was 6.105 mmol⸱kg-1 and the “surface tension at CAC, γCAC” value [2] was 48.2 mN m-1. The “CAC (wFIL), tensiometer” value [3] was 0.0089, the “CAC, tensiometer” value [3] was 21.61 mmol⸱kg-1 and the “surface tension at CAC, γCAC” value [3] was 38.3 mN m-1. For the same compound, the “10^6 Γmax, maximum surface excess concentration” value [4] was 4.41 mol m-2, the “Amin, minimum area per surfactant molecule at the air/water interface” value [4] was 0.38 nm2 and the “CAC (wFIL), tensiometer” value [4] was 0.0335. For the same compound, the “CAC, tensiometer” value [4] was 81.59 mmol⸱kg-1, the “critical packing parameter Peq 8” value [4] was 0.7439 and the “critical packing parameter Peq 9” value [4] was 0.7481. For the same compound, the “surface tension at CAC, γCAC” value [4] was 24.3 mN m-1, the “ΔG0ad, standard free energy of adsorption” value [4] was -7.734 kcal/mol and the “ΠCAC, efficacy to reduce the surface tension” value [4] was 37.8 mN m-1. For the same compound, the “10^6 Γmax, maximum surface excess concentration” value (5 mM NaH2PO4 (pH=7.4)) was 3.26 mol m-2, the “Amin, minimum area per surfactant molecule at the air/water interface” value (5 mM NaH2PO4 (pH=7.4)) was 0.51 nm2 and the “CAC (wFIL), tensiometer” value (5 mM NaH2PO4 (pH=7.4)) was 0.0330. The “CAC, tensiometer” value (5 mM NaH2PO4 (pH=7.4)) was 80.35 mmol⸱kg-1, the “critical packing parameter Peq 8” value (5 mM NaH2PO4 (pH=7.4)) was 0.550 and the “critical packing parameter Peq 9” value (5 mM NaH2PO4 (pH=7.4)) was 0.553. The “surface tension at CAC, γCAC” value (5 mM NaH2PO4 (pH=7.4)) was 24.6 mN m-1, the “ΔG0ad, standard free energy of adsorption” value (5 mM NaH2PO4 (pH=7.4)) was -9.8 kcal/mol and the “ΠCAC, efficacy to reduce the surface tension” value (5 mM NaH2PO4 (pH=7.4)) was 46.4 mN m-1.
